Test results from patent publication US9278941B2, “Azole derivative and uses thereof” (Kureha Corporation, priority 2011, dated 2016).
Read-outs that look alike come from different tables or passages of the source.

How the values were obtained:
[1] = system: Wheat leaf blight (Septoria tritici); experiment: Antifungal test against wheat leaf blight (PDA plate); conditions: 19 days at 25° C.
Description: Wheat leaf blight (Septoria tritici) cultured beforehand in a medium plate was punched out with a 4 mm-diameter cork borer, and inoculated in the plate media containing the agent. After inoculation, they were cultured for 19 days at 25° C., and the growth of the fungus was determined by the diameter of the growth. The growth rate of the fungus in the plate media containing the agent was compared to the growth rate of the fungus in the plate medium not containing the agent, and the filamentous fungi inhibition rate was determined using the following equation. In the equation, R is the filamentous fungi inhibition rate (%), dc is the diameter of the fungal growth in the untreated plate media, and dt is the diameter of the fungal growth in the treated plate media. R=100(dc−dt)/dc

wheat leaf rust = experiment: Rust control effect on wheat, foliar spray treatment; format: in vivo; conditions: wettable powder foliar spray 1,000 L/ha, twelve days after inoculation
Fusarium graminearum = format: cell-based; conditions: PDA plate medium
Alternaria alternata = experiment: Antifungal test for pathogens (PDA plate), A.m; format: cell-based; conditions: PDA plate medium
Rhizopus oryzae = experiment: Antifungal test for pathogens (PDA plate), R.o; format: cell-based; conditions: PDA plate medium
wheat brown rust = experiment: Brown rust control effect on wheat, seed treatment; format: in vivo; conditions: sixteen days after inoculation
Description: A pot test was performed to evaluate the brown rust controlling effect on wheat using seed treatment. Compound (1(−)) or Compound (1(+)) was dissolved in DMSO so the treatment amount was 20 g ai/100 kg seeds or 2 g ai/100 kg seeds, and the solution was smeared on wheat seeds in a vial, and eight wheat seeds were seeded in a 80 cm^2 pot. These were irrigated from below in a greenhouse. Fifteen days after seeding, the seedlings were inoculated with wheat brown rust and then kept for two days in a box. These were again irrigated from below in a greenhouse.

Microdochium nivale = experiment: Antifungal test for pathogens (PDA plate), M.n; format: cell-based; conditions: PDA plate medium
Fusarium oxysporum = experiment: Antifungal test for pathogens (PDA plate), F.c; format: cell-based; conditions: PDA plate medium
Glomerella cingurata = experiment: Antifungal test for pathogens (PDA plate), G.c; format: cell-based; conditions: PDA plate medium
wheat = experiment: Phytotoxicity evaluation of growth inhibition of wheat seeds, seed treatment; format: in vivo; conditions: fifteen days after seeding, untreated 21 cm
Description: A pot test was used to perform a phytotoxicity evaluation of growth inhibition using a seed treatment. Compound (1(−)) or Compound (1(+)) was dissolved in DMSO so the treatment amount was 2 or 20 g ai/100 kg seeds, and the solution was smeared on wheat seeds in a vial, and eight wheat seeds were seeded in a 80 cm^2 pot. These were irrigated from below in a greenhouse. Fifteen days after seeding, the length of the wheat was evaluated.

[2] = system: Pseudocercoporella herpotrichoides; experiment: Antifungal test for pathogens (PDA plate), P.h; format: cell-based; conditions: PDA plate medium
Penicillium italicum = experiment: Antifungal test for pathogens (PDA plate), P.i; format: cell-based; conditions: PDA plate medium
Botrytis cinerea [3] = experiment: Gray mold disease control effect on cucumbers, foliar spray treatment; format: in vivo; conditions: cucumber gray mold, wettable powder foliar spray 1,000 L/ha, four days after inoculation
Botrytis cinerea [4] = experiment: Antifungal test for pathogens (PDA plate), B.c; format: cell-based; conditions: PDA plate medium
powdery mildew = experiment: Powdery mildew control effect on wheat, foliar spray treatment; format: in vivo; conditions: wettable powder foliar spray 1,000 L/ha, seven days after inoculation
Sclerotinia sclerotiorum = experiment: Antifungal test for pathogens (PDA plate), S.s; format: cell-based; conditions: PDA plate medium
Cercospora beticola = experiment: Antifungal test for pathogens (PDA plate), C.b; format: cell-based; conditions: PDA plate medium
Pyricularia oryzae = format: cell-based; conditions: PDA plate medium
Gibberella fujikuroi = experiment: Antifungal test for pathogens (PDA plate), G.f; format: cell-based; conditions: PDA plate medium
Gaeumannomyces graminis = experiment: Antifungal test for pathogens (PDA plate), G.g; format: cell-based; conditions: PDA plate medium
Pyrenophora graminea = experiment: Antifungal test for pathogens (PDA plate), P.g; format: cell-based; conditions: PDA plate medium
Rhizoctonia solani = experiment: Antifungal test for pathogens (PDA plate), R.s; format: cell-based; conditions: PDA plate medium
Rhynchosporium secalis = experiment: Antifungal test for pathogens (PDA plate), R.sec; format: cell-based; conditions: PDA plate medium
Phaeosphaeria nodorum = experiment: Antifungal test for pathogens (PDA plate), P.n; format: cell-based; conditions: PDA plate medium
Ustilago nuda = experiment: Antifungal test for pathogens (PDA plate), U.n; format: cell-based; conditions: PDA plate medium
wheat leaf blight = experiment: Leaf blotch control effect on wheat, foliar spray treatment; conditions: wettable powder foliar spray 1,000 L/ha, thirty days after inoculation
Description: After blow drying the sprayed leaves, the plants were sprinkled and inoculated with wheat leaf blight. Thirty days after inoculation, the morbidity of the wheat to powdery mildew was evaluated according to the criteria shown in Table 3, and the preventative value was calculated using the following equation. When the average morbidity of the sprayed plot was higher than the average morbidity of the unsprayed plot, the preventative value was 0%. Preventative value (%)=(1−(average morbidity of the sprayed plot/average morbidity of the unsprayed plot))×100.

COC(=O)[C@]1(C)CC[C@H](Cc2ccc(Cl)cc2)[C@@]1(O)Cn1cncn1 (relative stereo) [Compound (1(−)), (1,2-cis, 1,3-cis)-3-(4-chlorobenzyl)-2-hydroxy-1-methyl-2-(1H-1,2,4-triazole-1-ylmethyl)cyclopentanecarboxylic acid methyl ester]
Antifungal Index ([1]; sample conc. 0.31 mg/L): 1 (<60%) | Antifungal Index ([1]; sample conc. 0.63 mg/L): 2 (70%-60%) | Antifungal Index ([1]; sample conc. 1.25 mg/L): 4 (90%-80%) | Preventative Value (%) (wheat leaf rust; sample conc. 0.8 mg/L): 83.5% | Preventative Value (%) (wheat leaf rust; sample conc. 3.1 mg/L): 92.9% | Antifungal Index of Each Strain F.g (Fusarium graminearum; Sample Conc. 1.25 mg/L): 5 (>90%) | Antifungal Index of Each Strain F.g (Fusarium graminearum; Sample Conc. 2.5 mg/L): 5 (>90%) | Antifungal Index of Each Strain F.g (Fusarium graminearum; Sample Conc. 5 mg/L): 5 (>90%) | Antifungal Index of Each Strain A.m (Alternaria alternata; Sample Conc. 1.25 mg/L): 3 (80%-70%) | Antifungal Index of Each Strain A.m (Alternaria alternata; Sample Conc. 2.5 mg/L): 4 (90%-80%) | Antifungal Index of Each Strain A.m (Alternaria alternata; Sample Conc. 5 mg/L): 5 (>90%) | Antifungal Index of Each Strain R.o (Rhizopus oryzae; Sample Conc. 1.25 mg/L): 5 (>90%) | Antifungal Index of Each Strain R.o (Rhizopus oryzae; Sample Conc. 2.5 mg/L): 5 (>90%) | Antifungal Index of Each Strain R.o (Rhizopus oryzae; Sample Conc. 5 mg/L): 5 (>90%) | Preventative Value (%) (wheat brown rust; seed treatment 2 g ai/100 kg seeds): 70% | Preventative Value (%) (wheat brown rust; seed treatment 20 g ai/100 kg seeds): 100% | Antifungal Index of Each Strain M.n (Microdochium nivale; Sample Conc. 1.25 mg/L): 3 (80%-70%) | Antifungal Index of Each Strain M.n (Microdochium nivale; Sample Conc. 2.5 mg/L): 5 (>90%) | Antifungal Index of Each Strain M.n (Microdochium nivale; Sample Conc. 5 mg/L): 5 (>90%) | Antifungal Index of Each Strain F.c (Fusarium oxysporum; Sample Conc. 1.25 mg/L): 5 (>90%) | Antifungal Index of Each Strain F.c (Fusarium oxysporum; Sample Conc. 2.5 mg/L): 5 (>90%) | Antifungal Index of Each Strain F.c (Fusarium oxysporum; Sample Conc. 5 mg/L): 5 (>90%) | Antifungal Index of Each Strain G.c (Glomerella cingurata; Sample Conc. 1.25 mg/L): 5 (>90%) | Antifungal Index of Each Strain G.c (Glomerella cingurata; Sample Conc. 2.5 mg/L): 5 (>90%) | Antifungal Index of Each Strain G.c (Glomerella cingurata; Sample Conc. 5 mg/L): 5 (>90%) | Average Plant Length (cm) (wheat; wheat seed treatment 2 g ai/100 kg seeds): 11 cm | Average Plant Length (cm) (wheat; wheat seed treatment 20 g ai/100 kg seeds): 6 cm | Antifungal Index of Each Strain P.h ([2]; Sample Conc. 1.25 mg/L): 5 (>90%) | Antifungal Index of Each Strain P.h ([2]; Sample Conc. 2.5 mg/L): 5 (>90%) | Antifungal Index of Each Strain P.h ([2]; Sample Conc. 5 mg/L): 5 (>90%) | Antifungal Index of Each Strain P.i (Penicillium italicum; Sample Conc. 0.08 mg/L): 1 (<60%) | Antifungal Index of Each Strain P.i (Penicillium italicum; Sample Conc. 0.16 mg/L): 1 (<60%) | Antifungal Index of Each Strain P.i (Penicillium italicum; Sample Conc. 0.31 mg/L): 3 (80%-70%) | Antifungal Index of Each Strain P.i (Penicillium italicum; Sample Conc. 0.63 mg/L): 5 (>90%) | Preventative Value (%) (Botrytis cinerea [3]; sample conc. 12.5 mg/L): 64.7% | Preventative Value (%) (Botrytis cinerea [3]; sample conc. 50.0 mg/L): 100% | Antifungal Index of Each Strain B.c (Botrytis cinerea [4]; Sample Conc. 1.25 mg/L): 5 (>90%) | Antifungal Index of Each Strain B.c (Botrytis cinerea [4]; Sample Conc. 2.5 mg/L): 5 (>90%) | Antifungal Index of Each Strain B.c (Botrytis cinerea [4]; Sample Conc. 5 mg/L): 5 (>90%) | Preventative Value (%) (powdery mildew; sample conc. 12.5 mg/L): 96% | Preventative Value (%) (powdery mildew; sample conc. 50.0 mg/L): 98% | Antifungal Index of Each Strain S.s (Sclerotinia sclerotiorum; Sample Conc. 1.25 mg/L): 5 (>90%) | Antifungal Index of Each Strain S.s (Sclerotinia sclerotiorum; Sample Conc. 2.5 mg/L): 5 (>90%) | Antifungal Index of Each Strain S.s (Sclerotinia sclerotiorum; Sample Conc. 5 mg/L): 5 (>90%) | Antifungal Index of Each Strain C.b (Cercospora beticola; Sample Conc. 0.08 mg/L): 5 (>90%) | Antifungal Index of Each Strain C.b (Cercospora beticola; Sample Conc. 0.16 mg/L): 5 (>90%) | Antifungal Index of Each Strain C.b (Cercospora beticola; Sample Conc. 0.31 mg/L): 5 (>90%) | Antifungal Index of Each Strain C.b (Cercospora beticola; Sample Conc. 0.63 mg/L): 5 (>90%) | Antifungal Index of Each Strain P.o (Pyricularia oryzae; Sample Conc. 1.25 mg/L): 4 (90%-80%) | Antifungal Index of Each Strain P.o (Pyricularia oryzae; Sample Conc. 2.5 mg/L): 5 (>90%) | Antifungal Index of Each Strain P.o (Pyricularia oryzae; Sample Conc. 5 mg/L): 5 (>90%) | Antifungal Index of Each Strain G.f (Gibberella fujikuroi; Sample Conc. 1.25 mg/L): 5 (>90%) | Antifungal Index of Each Strain G.f (Gibberella fujikuroi; Sample Conc. 2.5 mg/L): 5 (>90%) | Antifungal Index of Each Strain G.f (Gibberella fujikuroi; Sample Conc. 5 mg/L): 5 (>90%) | Antifungal Index of Each Strain G.g (Gaeumannomyces graminis; Sample Conc. 1.25 mg/L): 5 (>90%) | Antifungal Index of Each Strain G.g (Gaeumannomyces graminis; Sample Conc. 2.5 mg/L): 5 (>90%) | Antifungal Index of Each Strain G.g (Gaeumannomyces graminis; Sample Conc. 5 mg/L): 5 (>90%) | Antifungal Index of Each Strain P.g (Pyrenophora graminea; Sample Conc. 0.08 mg/L): 2 (70%-60%) | Antifungal Index of Each Strain P.g (Pyrenophora graminea; Sample Conc. 0.16 mg/L): 3 (80%-70%) | Antifungal Index of Each Strain P.g (Pyrenophora graminea; Sample Conc. 0.31 mg/L): 4 (90%-80%) | Antifungal Index of Each Strain P.g (Pyrenophora graminea; Sample Conc. 0.63 mg/L): 5 (>90%) | Antifungal Index of Each Strain R.s (Rhizoctonia solani; Sample Conc. 1.25 mg/L): 5 (>90%) | Antifungal Index of Each Strain R.s (Rhizoctonia solani; Sample Conc. 2.5 mg/L): 5 (>90%) | Antifungal Index of Each Strain R.s (Rhizoctonia solani; Sample Conc. 5 mg/L): 5 (>90%) | Antifungal Index of Each Strain R.sec (Rhynchosporium secalis; Sample Conc. 0.08 mg/L): 5 (>90%) | Antifungal Index of Each Strain R.sec (Rhynchosporium secalis; Sample Conc. 0.16 mg/L): 5 (>90%) | Antifungal Index of Each Strain R.sec (Rhynchosporium secalis; Sample Conc. 0.31 mg/L): 5 (>90%) | Antifungal Index of Each Strain R.sec (Rhynchosporium secalis; Sample Conc. 0.63 mg/L): 5 (>90%) | Antifungal Index of Each Strain P.n (Phaeosphaeria nodorum; Sample Conc. 1.25 mg/L): 5 (>90%) | Antifungal Index of Each Strain P.n (Phaeosphaeria nodorum; Sample Conc. 2.5 mg/L): 5 (>90%) | Antifungal Index of Each Strain P.n (Phaeosphaeria nodorum; Sample Conc. 5 mg/L): 5 (>90%) | Antifungal Index of Each Strain U.n (Ustilago nuda; Sample Conc. 1.25 mg/L): 5 (>90%) | Antifungal Index of Each Strain U.n (Ustilago nuda; Sample Conc. 2.5 mg/L): 5 (>90%) | Antifungal Index of Each Strain U.n (Ustilago nuda; Sample Conc. 5 mg/L): 5 (>90%) | Preventative Value (%) (wheat leaf blight; sample conc. 12.5 mg/L): 37.5% | Preventative Value (%) (wheat leaf blight; sample conc. 50 mg/L): 65%

CC1(C)CCC(Cc2ccc(Cl)cc2)C1(O)Cn1cncn1 (centres unmarked) [Metconazole, reference compound]
Antifungal Index ([1]; sample conc. 0.31 mg/L): 1 (<60%) | Antifungal Index ([1]; sample conc. 0.63 mg/L): 2 (70%-60%) | Antifungal Index ([1]; sample conc. 1.25 mg/L): 4 (90%-80%) | Preventative Value (%) (wheat leaf rust; sample conc. 0.8 mg/L): 34.1% | Preventative Value (%) (wheat leaf rust; sample conc. 3.1 mg/L): 81.1% | Preventative Value (%) (wheat leaf blight; sample conc. 12.5 mg/L): 0% | Preventative Value (%) (wheat leaf blight; sample conc. 50 mg/L): 62.5%
